Reference: patent US20260109712A1, “RIFAMYCINS FOR NONTUBERCULOUS MYCOBACTERIA” (priority 2022, published 2026)
In brackets after ≈: the same amount, converted by molar mass. Like-named read-outs stand apart in the source and are kept apart here.

Key:
M. abscessus ATCC 19977 = assay: MIC assay in 96-well plate format, wild-type strain; format: cell-based, Mycobacterium abscessus
Summary of the method: (§1)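 Two-fold, ten-point dilutions in 7H9 with 2% DMSO; mid-log culture diluted to OD600=0.1 (1×10^7 CFU/mL). Incubated 3 days at 37 °C, shaking 110 RPM; growth = Day 3 minus Day 0 OD600, expressed as percentage of drug-free growth and plotted against concentration. Two biological replicates.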

Δarr M. abscessus = assay: MIC assay, isogenic arr-deleted strain; format: cell-based, Mycobacterium abscessus
Summary of the method: as §1

M. abscessus Bamboo [1] = assay: MIC assay, clinical isolate Bamboo; format: cell-based, Mycobacterium abscessus
[2] = test system: M. abscessus subsp. abscessus K21; assay: MIC assay, clinical isolate K21; format: cell-based, Mycobacterium abscessus; conditions: 90% inhibition of bacterial growth
RFB-R1 M. abscessus = assay: microbe, parasite or virus in culture; format: cell-based, Mycobacterium abscessus
M. abscessus Bamboo [3] = assay: Broth MBC90 (bMBC90); format: cell-based, Mycobacterium abscessus; conditions: broth, 5 days
Text: Broth MIC, broth MBC90 (bMBC90), and caseum surrogate MBC90 ([…]) of clinically used antibiotics and of novel ADP-ribosylation-resistant rifabutin analogs against M. abscessus Bamboo have been evaluated.

M. abscessus Bamboo [4] = assay: Caseum surrogate MBC90 (cMBC90) kill assay; format: cell-based, Mycobacterium abscessus
Text: (§2) The surrogate matrix was generated as described previously from cultured THP-1 cells (ATCC TIB-202) (mBio, 2023, 14, e0059823). M. abscessus exponential cultures grown in Middlebrook 7H9 broth (Sigma Aldrich) (OD600 0.6-0.9) were spun down and resuspended in water to an OD600 of 7, 0.7, and 0.07. As described for the M. tuberculosis caseum surrogate assay (mnBio, 2023, 14, e0059823), the bacterial suspensions (at three different dilutions resulting in ˜10^9, 10^8, and 10^7 starting CFU/mL, represented by circle, square, and triangle indicators respectively) were added to the caseum surrogate in the ratio 2:1 (vol/wt), briefly homogenized with 1.4-mm zirconia beads, divided evenly into nine 1.5-mL microcentrifuge tubes, and incubated as standing cultures at 37° C. At the indicated time points, tubes were removed and used for CFU enumeration by plating on Middlebrook 7H11 agar (Sigma Aldrich). Separate tubes were used at each time point. To determine the kill curves, cultures with a starting CFU/mL of 10^8 were used (resulting in the middle curve with square indicators). Arrows indicate the time points when drugs were added and the end of the treatment. The experiment was repeated three times independently, yielding similar results. A representative example is shown. Dots and error bars represent means and standard deviations of three technical replicates, respectively.
FIGS. 29A-29M show the Dose-response kill curves against M. abscessus Bamboo in caseum surrogate. M. abscessus cultures were set up as described in the legend of FIG. 28. Bacterial cell suspensions were added to yield a starting CFU of 10^8/mL (FIG. 28, middle growth curve with square indicators). […] The shaded areas indicate drug concentration windows achieved in caseum in vivo. (Antimicrob. Agents Chemother., 2021, 65, e0050621; Antimicrob. Agents Chemother., 2022, 66, e0221221; PLoS Med., 2019, 16, e1002773; ACS Infect. Dis., 2016, 2, 251-267). The experiment was repeated twice independently, yielding similar results. A representative example is shown. Dots and error bars represent means and standard deviations of three technical replicates, respectively. Horizontal dotted lines indicate the cutoff for 1 log reduction in CFU compared to 10-day drug-free control culture. The cMBC90 values shown in Table 16 are the drug concentrations that reduce CFU by 90% relative to the CFU of drug-free controls at day 10. Since the cultures were in the stationary phase on day 5 when drug treatment started, the CFUs of the drug-free cultures at day 10 were similar to the CFUs of the drug-free cultures at day 5 (FIG. 28).
as §2, with “(doi: 10.1128/mbio.00598-23).” for “(mBio, 2023, 14, e0059823).”, “(doi: 10.1128/mbio.00598-23),” for “(mnBio, 2023, 14, e0059823),”, “CFU/mL)” for “CFU/mL, represented by circle, square, and triangle indicators respectively)”, “curves for the drugs,” for “curves,”, “used.” for “used (resulting in the middle curve with square indicators). Arrows indicate the time points when drugs were added and the end of the treatment.”, “results.” for “results. A representative example is shown. Dots and error bars represent means and standard deviations of three technical replicates, respectively.”
The experiment was repeated twice independently, yielding similar results. A representative example is shown. The cMBC90 values shown in Table 16 are the drug concentrations that reduce CFU by 90% relative to the CFU of drug-free controls at day 10. […]

[5] = Mouse pharmacokinetics studies; format: in vivo, CD-1 mice
Summary of the method: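 Plasma from K2EDTA-collected blood analysed by LC-MS/MS with multiple-reaction monitoring in electrospray positive mode. Parameters derived by non-compartmental analysis.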

[6] = Plasma protein binding assay (rapid equilibrium dialysis); format: in vitro ADME; conditions: plasma, 4 h, 10000 ng/mL
Summary of the method: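 Plasma was spiked to 10,000 ng/mL compound and dialysed against PBS by rapid equilibrium dialysis for 4 h at 37° C with shaking at 300 RPM. Plasma and buffer aliquots were matrix-matched 1:1 […] and quantified by LC-MS/MS.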

THP-1 = assay: Fold-killing in THP-1; format: cell-based; conditions: expressed in log-10 scale
Mab ATCC 19977 (Smooth) = assay: Acute Mab mouse infection model (GM-CSF knockout mice); format: in vivo; conditions: 25 mg/kg every day for 7 days
Protocol: In vivo efficacy of compounds UMN22 and UMN34 were evaluated in acute Mab mouse infection model.

Mycobacterium abscessus = assay: MIC against Mycobacterium abscessus (strain not given); format: cell-based
CYP3A4 = conditions: human, 10 μM
Protocol: The threshold cycle (CT) was measured for each isoform cDNA by real time qRT-PCR. The mRNA level of each isoform was assessed by the relative quantifiation with reference gene (GAPDH) as the normalizer method. The normalized fold induction was calculated by 2^−ΔΔCT method, in which 0.1% DMSO was used as the reference (vehicle control). The induction potential of each test compound was analyzed by comparing its fold induction to a pre-determined cutoff value for each lot of hepatocytes. The hepatocytes lots used in this study were validated using 10 known inducers and 5 known non-inducers for each isozyme. A cutoff value is determined based on the validation study for each hepatocytes lot.

[7] = 90% inhibition of bacterial growth

## CO[C@H]1/C=C/O[C@@]2(C)Oc3c(C)c(O)c4c(c3C2=O)C2=NC3(CCN(CC(C)C)CC3)NC2=C(NC(=O)/C(C)=C/C=C/[C@H](C)[C@H](O)[C@@H](C)[C@@H](O)[C@@H](C)[C@H](OC(=O)c2ccccc2)[C@@H]1C)C4=O [5a, 25-O-benzoyl rifabutin]
M. abscessus ATCC 19977; [7]
  Mab 19977 MIC: 0.053 µM
M. abscessus ATCC 19977; M. abscessus ATCC 19977, 90% growth inhibition, read-out: WT Mab MIC
  MIC: 0.053 µM (≈ 0.0482 µg/mL)
M. abscessus ATCC 19977; WT MIC/Δarr strain MIC
  MIC ratio: 0.9
Δarr M. abscessus; arr-deleted strain, 90% growth inhibition
  Δarr Mab MIC: 0.06 µM
M. abscessus Bamboo [1]; [7]
  Mab Bamboo MIC: 0.065 µM
M. abscessus Bamboo [1]; broth, M. abscessus Bamboo, Table 16, read-out: MIC
  MIC: 0.07 µM (≈ 0.0636 µg/mL)
[2]
  Mab K21 MIC: 0.098 µM
RFB-R1 M. abscessus; RNAP point mutation
  activity against rifamycin-resistant mutant RFB-R1: lost detectable activity
RFB-R1 M. abscessus; rpoB H447Y mutant, 90% inhibition
  RFB-R1 M. abscessus MIC: >100 µM
M. abscessus Bamboo [3]
  MBC: 0.30 µM (≈ 0.273 µg/mL)
M. abscessus Bamboo [4]; 5-day assays
  cMBC90/bMBC90: 26.7
M. abscessus Bamboo [4]; caseum surrogate, 5 days, 90% CFU reduction vs drug-free control, read-out: cMBC90
  MBC: 8 µM (≈ 7.27 µg/mL)

## CO[C@H]1/C=C/O[C@@]2(C)Oc3c(C)c(O)c4c(c3C2=O)C2=NC3(CCN(CC(C)C)CC3)NC2=C(NC(=O)/C(C)=C/C=C/[C@H](C)[C@H](O)[C@@H](C)[C@@H](O)[C@@H](C)[C@H](OC(=O)c2cccnc2)[C@@H]1C)C4=O [UMN22]
M. abscessus ATCC 19977; Table 10
  MICWT: 0.025 µM
Δarr M. abscessus; Table 10
  MICΔorr: 0.027 µM
[5]; Table 20
  ƒAUC/MIC: 45.0
[5]; female, CD-1, mouse, in vivo
  F: 78%
  Vd: 1.6 L/kg
  clearance: 3 mL/min/kg
[6]
  plasma unbound (ƒu, %): 2.0%
THP-1
  Fold-killing in THP-1: 3.8
Mab ATCC 19977 (Smooth)
  reduction in lung CFU burden vs RFB and untreated groups: ~2 log10
Mycobacterium abscessus; Mycobacteroides abscessus, 72 h, Table 22, read-out: MICMab
  MIC: 0.025 µM (≈ 0.0228 µg/mL)
Mycobacterium abscessus; Mycobacteroides abscessus, against Mycobacterium abscessus, Table 19, read-out: MIC
  MIC: 0.025 µM (≈ 0.0228 µg/mL)
Mycobacterium abscessus; against Mycobacterium abscessus, Table 20, read-out: MIC
  MIC: 0.025 µM (≈ 0.0228 µg/mL)
CYP3A4
  CYP3A4 gene fold-induction at 10 μM: 14.1
